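Following 48 hours of exposure in 96-well plates, responses at five concentrations were used to interpolate endpoints linearly. TGI denotes the concentration required for complete inhibition of growth.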 A value given as a limit tells only on which side of the number the result lay.

Among the test systems are RPMI-8226 leukemia; IGROV1 ovarian; SK-MEL-5 melanoma; OVCAR-5 ovarian; HCT-116 colon; SNB-19 CNS; PC-3 prostate; A498 renal; NCI/ADR-RES ovarian; SNB-75 CNS.
Experiment in all cases: NCI-60 cell line screen, 48 h

For `CCN(CC)C(=O)CCCCCCCCC1CO1` (stereo unspecified), the TGI with RPMI-8226 leukemia, with IGROV1 ovarian, with SK-MEL-5 melanoma, in the experiment with OVCAR-5 ovarian, in the experiment on HCT-116 colon and in the experiment with SNB-19 CNS was greater than 100 µM each time. Also, the TGI in the experiment with PC-3 prostate, with A498 renal, in the experiment with NCI/ADR-RES ovarian and with SNB-75 CNS was greater than 100 µM each time.

Consider `CN(C)c1ccc(/C=N/NC2=N/C(=C\c3ccco3)C(=O)N2)cc1`, for which the TGI with RPMI-8226 leukemia, in the experiment on IGROV1 ovarian, in the experiment on SK-MEL-5 melanoma, in the experiment with OVCAR-5 ovarian, in the experiment on HCT-116 colon and in the experiment with SNB-19 CNS was greater than 100 µM in each case. Moreover, the TGI with PC-3 prostate, in the experiment on A498 renal, in the experiment on NCI/ADR-RES ovarian and with SNB-75 CNS was greater than 100 µM throughout.

For the molecule `COC(=O)c1c(O)ccc2c1c1c(n2C)C(=O)c2ccccc2C1=O`, the TGI was 64.8 µM in the experiment with RPMI-8226 leukemia; 21.8 µM with IGROV1 ovarian; greater than 100 µM with SK-MEL-5 melanoma; greater than 100 µM in the experiment on OVCAR-5 ovarian; 32.1 µM with HCT-116 colon; 50.9 µM with SNB-19 CNS. Moreover, the TGI with PC-3 prostate is greater than 100 µM; with A498 renal, greater than 100 µM; with NCI/ADR-RES ovarian, greater than 100 µM; in the experiment on SNB-75 CNS, 15 µM.

For `C=C[C@H]1CN2CC[C@H]1C[C@@H]2[C@@H](O)c1ccnc2ccccc12`, the TGI in the experiment with RPMI-8226 leukemia is 90 µM; in the experiment on IGROV1 ovarian, 75.9 µM; with SK-MEL-5 melanoma, greater than 100 µM; in the experiment on OVCAR-5 ovarian, greater than 100 µM; in the experiment on HCT-116 colon, greater than 100 µM; in the experiment with SNB-19 CNS, greater than 100 µM. The TGI in the experiment on PC-3 prostate, with A498 renal, with NCI/ADR-RES ovarian and with SNB-75 CNS was greater than 100 µM throughout.

Turning to `Cc1nc2ccccc2n1CCc1nc2ccccc2s1`, the TGI was greater than 100 µM in the experiment with RPMI-8226 leukemia; greater than 100 µM in the experiment on IGROV1 ovarian; 23.6 µM with SK-MEL-5 melanoma; greater than 100 µM in the experiment on OVCAR-5 ovarian; greater than 100 µM in the experiment with HCT-116 colon; greater than 100 µM in the experiment with SNB-19 CNS. In addition, the TGI in the experiment with PC-3 prostate, in the experiment on A498 renal, in the experiment on NCI/ADR-RES ovarian and in the experiment on SNB-75 CNS was greater than 100 µM throughout.

With `CC(Nc1cc(Cl)cc(Cl)c1)c1ccncc1` (stereo unspecified), the TGI is 42.5 µM in the experiment with RPMI-8226 leukemia; 31.8 µM with IGROV1 ovarian; 28.7 µM in the experiment with SK-MEL-5 melanoma; 32.4 µM in the experiment on OVCAR-5 ovarian; 31.6 µM with HCT-116 colon; greater than 100 µM with SNB-19 CNS. The TGI in the experiment with PC-3 prostate was determined as 36.7 µM; in the experiment on A498 renal, 88.8 µM; in the experiment with NCI/ADR-RES ovarian, 63.7 µM; with SNB-75 CNS, 63.1 µM.

Regarding `COc1ccc(N=C/C=C/Nc2ccc(OC)cc2)cc1`, the TGI is 30.4 µM in the experiment on RPMI-8226 leukemia; 25.1 µM in the experiment on IGROV1 ovarian; 19.5 µM in the experiment with SK-MEL-5 melanoma; 29.6 µM with OVCAR-5 ovarian; 11.8 µM in the experiment on HCT-116 colon; 10.4 µM in the experiment on SNB-19 CNS. Also, the TGI in the experiment on PC-3 prostate amounted to 26.1 µM; with A498 renal it was 27.2 µM; with NCI/ADR-RES ovarian, 25 µM; in the experiment with SNB-75 CNS, 33.1 µM.

With `CO[P@]1(=O)O[C@@H](c2ccccc2)[C@H](O)[C@]1(O)c1ccccc1`, the TGI in the experiment with RPMI-8226 leukemia, in the experiment with IGROV1 ovarian, with SK-MEL-5 melanoma, in the experiment with OVCAR-5 ovarian, with HCT-116 colon and with SNB-19 CNS was greater than 100 µM in each case. Moreover, the TGI with PC-3 prostate, with A498 renal, with NCI/ADR-RES ovarian and in the experiment with SNB-75 CNS was greater than 100 µM in each case.

As to `NNC(=O)c1ccccc1NC(=O)/C(=C/c1ccccc1)NC(=O)c1ccccc1`, the TGI in the experiment with RPMI-8226 leukemia, with IGROV1 ovarian, with SK-MEL-5 melanoma, with OVCAR-5 ovarian, with HCT-116 colon and with SNB-19 CNS was greater than 100 µM each time. For the same molecule, the TGI with PC-3 prostate, in the experiment on A498 renal, in the experiment with NCI/ADR-RES ovarian and in the experiment with SNB-75 CNS was greater than 100 µM in each case.

For `O=C1/C(=C/c2cccs2)N=C(c2ccccc2)N1C1Nc2cc3c(cc2S1)NC(N1C(=O)/C(=C/c2cccs2)N=C1c1ccccc1)S3` (stereo unspecified), the TGI was 51.7 µM with RPMI-8226 leukemia; greater than 100 µM with IGROV1 ovarian; 37.4 µM with SK-MEL-5 melanoma; 75 µM with OVCAR-5 ovarian; 56 µM in the experiment on HCT-116 colon; greater than 100 µM in the experiment on PC-3 prostate. The values for the TGI in the experiment on A498 renal, in the experiment with NCI/ADR-RES ovarian and in the experiment on SNB-75 CNS were greater than 100 µM, 33.6 µM and 83.2 µM, respectively.

Take `CC(=O)O[C@H]1/C(=C/c2ccc(N(C)C)cc2)C[C@H]2[C@@H]3CC=C4C[C@@H](N5CCCC5)CC[C@]4(C)[C@H]3CC[C@]12C`: the TGI in the experiment with RPMI-8226 leukemia, in the experiment on IGROV1 ovarian, in the experiment on SK-MEL-5 melanoma, in the experiment on OVCAR-5 ovarian, with HCT-116 colon and in the experiment on SNB-19 CNS was greater than 100 µM in each case. Moreover, the TGI in the experiment with PC-3 prostate, in the experiment on A498 renal, in the experiment on NCI/ADR-RES ovarian and with SNB-75 CNS was greater than 100 µM throughout.

In the case of `CCCCCCCCCC[C@@H](O)[C@@H]1CC[C@@H]([C@@H]2CC[C@@H]([C@@H](O)CCCCCCCCCCC(O)CC3=CC(C)OC3=O)O2)O1` (stereo partly specified), the TGI was greater than 10 µM in the experiment with RPMI-8226 leukemia; greater than 10 µM in the experiment on IGROV1 ovarian; 2.92 µM with SK-MEL-5 melanoma; greater than 10 µM in the experiment on OVCAR-5 ovarian; greater than 10 µM in the experiment on HCT-116 colon; greater than 10 µM in the experiment on PC-3 prostate. Besides, the TGI with A498 renal, with NCI/ADR-RES ovarian and with SNB-75 CNS was greater than 10 µM in each case.

Regarding `Cc1ccc2[nH]c(=O)c(-c3cnc(=O)[nH]n3)c(O)c2c1`, the TGI in the experiment with RPMI-8226 leukemia, in the experiment with IGROV1 ovarian, with SK-MEL-5 melanoma, with OVCAR-5 ovarian, in the experiment with HCT-116 colon and in the experiment on PC-3 prostate was greater than 100 µM each time. The TGI with A498 renal, in the experiment with NCI/ADR-RES ovarian and in the experiment with SNB-75 CNS was greater than 100 µM in each case.

As to `CCCCNC(=S)Nc1nc(C(=O)NNS(=O)(=O)c2ccccc2)cs1`, the TGI is greater than 100 µM in the experiment with RPMI-8226 leukemia; greater than 100 µM in the experiment with IGROV1 ovarian; 31 µM in the experiment with SK-MEL-5 melanoma; greater than 100 µM in the experiment with OVCAR-5 ovarian; 69.5 µM in the experiment on HCT-116 colon; 93.1 µM in the experiment on PC-3 prostate. Also, the TGI with A498 renal is greater than 100 µM; in the experiment on NCI/ADR-RES ovarian, greater than 100 µM; with SNB-75 CNS it was 76.6 µM.

(Values after PubChem BioAssay (NCI).)
